Earlier results as cited in patent US20110177168A1, “COMPOSITION” (SmithKline Beecham Limited, priority 2000, published 2011).

[1] = oral doses of conventional immediate release tablets

In the case of `CC(=O)Nc1ccc(O)cc1` [paracetamol, N-acetyl-p-aminophenol], the bioavailability [1] is listed as 80%, the tmax [1] is listed as 30 to 90 min and the elimination half-life (reported) is listed as 1.9 to 2.5 h.
